# Measured values: patent US9993463B2, “Use of maleimide derivatives for preventing and treating cancer” (CENTOGENE AG, priority 2012, dated 2018)
# How the values were obtained:
# [1] = system: purified bovine brain tubulin; test: Tubulin polymerisation turbidity assay; type: biochemical; settings: 1 μM, 340 nm, 37° C.; for shape of OD curve over time / effect on tubulin polymerization: 60 min, FIG. 5C, untreated control sigmoid
# Method: Purified bovine brain tubulin was used to measure tubulin-polymerisation by determining turbidity in tubulin samples incubated with compound of example 6 (PDA-66), paclitaxel or nocodazole (all 1 μM) and 0.6% DMSO in water as negative control. Optical density (OD) was measured after initiation of tubulin assembly at a wavelength of 340 nm continuously for 60 min in 1 min intervals at a temperature of 37° C. in a plate reader (Tecan, Mainz, Germany).
# [2] = system: human neuronal progenitor cells (hNPCs, ReNcell VM); test: Cell proliferation and vitality assay (CASY, current exclusion), hNPCs; type: cell-based; settings: for proliferation relative to control: 72 h
# Method: (§1) Human neural progenitor cells ReNcell VM (Millipore, Schwalbach, Germany) were cultured on laminin-coated culture-vessels. Culture medium consisted of DMEM/F12 supplemented with B27 media supplement, GlutaMax™, gentamycin and heparin sodium salt and growth factors EGF (epidermal growth factor) and bFGF (basic fibroblast growth factor). The human neuroblastoma cell line SH-SY5Y was obtained from the German Resource Centre for Biological Material DSMZ (Braunschweig, Germany). Cells were cultivated in DMEM, supplemented with 10% FBS, 1% Penicillin-Streptomycin, 4 mM L-Glutamine. The human T cell leukemia cell line Jurkat was obtained from the German Resource Centre for Biological Material DSMZ (Braunschweig, Germany). Cells were cultivated in RPMI 1640 medium, supplemented with 10% FBS, 1% Penicillin-Streptomycin. The murine melanoma cell line B16F10 was obtained from the American Type Culture Collection (ATCC, Manassas, USA), Cells were cultivated in DMEM/GM medium supplemented with 10% FBS, 1% Penicillin-Streptomycin. The mammary gland/breast carcinoma cell line MCF-7 was obtained from American Type Culture Collection (ATCC, Manassas, USA) and cultivated according to standard proceedings in Eagle's Minimum Essential Medium (EMEM). The colon carcinoma cell line SW480 was obtained from American Type Culture Collection (ATCC, Manassas, USA) and cultivated according to standard proceedings in Leibovitz's L15 Medium. The lung carcinoma cell line A549 was obtained from American Type Culture Collection (ATCC, Manassas, USA) and cultivated according to standard proceedings in F-12K Medium (Kaighn's Modification of Ham's F-12 Medium). The liver carcinoma cell line Hep G2 was obtained from American Type Culture Collection (ATCC, Manassas, USA) and cultivated according to standard proceedings in Eagle's Minimum Essential Medium (EMEM).
# (§2) Cell proliferation and vitality were measured with a CASY Model TT (Roche, Mannheim, Germany) by electrical current exclusion method. Cells were seeded in defined numbers into 48-well-plates and proliferated for 24 h. Subsequently fresh medium was applied containing compounds or DMSO, in the following referred as control.
# 5.1 Cytotoxic effects were evaluated using human fetal cells immortalized by transfection with the oncogen v-myc (Donato et al., Differential development of neuronal physiological responsiveness in two human neural stem cell lines. BMC Neurosci.; 8, 2007), also referred to herein as human neuronal progenitor cells, hNPCs, or ReNcell VM, providing a sensitive screening system and cancer cells, namely SH5Y5, Jurkat and B16F10 cells. Cytotoxic effects were measured by comparison of cells numbers of DMSO treated cells (control) and cell numbers of cells treated with compound of above mentioned example 2.6 (PDA66). Cell proliferation and vitality was measured with a CASY Model TT (Roche, Mannheim, Germany) by electrical current exclusion method. Cells were seeded in defined numbers into 48-well-plates and proliferated for 24 h: Subsequently fresh medium was applied containing compound of example 6 (3 μM) (PDA-66) or DMSO, in the following referred as control. Cell number and cell vitality was measured after 72 h.
# [3] = system: human T cell leukemia (Jurkat) cells; test: Cell proliferation assay (CASY, current exclusion), Jurkat; type: cell-based; settings: 72 h
# Method: as §1, with “The lung carcinoma cell line A549 was obtained from American Type Culture Collection (ATCC, Manassas, USA) and cultivated according to standard proceedings in F-12K Medium (Kaighn's Modification of Ham's F-12 Medium). The liver carcinoma cell line Hep G2 was obtained from American Type Culture Collection (ATCC, Manassas, USA) and cultivated according to standard proceedings in Eagle's Minimum Essential Medium (EMEM).” left out
# (§3) Cell proliferation and vitality were measured with a CASY Model TT (Roche, Mannheim, Germany) by electrical current exclusion method. […]
# (§4) 5.2 Furthermore cancer cells were treated with compound of example 2.6 (PDA-66) with a concentration of 3 μM for 72 h and cell number was evaluated using the current exclusion method as described above.
# (§5) In a further experiment further cancer cells were treated with compound of example 2.6 (PDA-66) with a concentration of 3 μM or 10 μM for 72 h and cell number was evaluated using the current exclusion method as described above.
# [4] = system: murine melanoma cells (B16F10); test: Cell proliferation assay (CASY, current exclusion), B16F10; type: cell-based
# Method: as §1, §2, §4, §5
# [5] = system: MCF-7 cells (mammary gland/breast carcinoma); test: Cell proliferation assay (CASY, current exclusion), MCF-7; type: cell-based; settings: mamma carcinoma cells (printed MCF-1), 72 h
# Method: (§6) Human neural progenitor cells ReNcell VM (Millipore, Schwalbach, Germany) were cultured on laminin-coated culture-vessels. Culture medium consisted of DMEM/F12 supplemented with B27 media supplement, GlutaMax™, gentamycin and heparin sodium salt and growth factors EGF (epidermal growth factor) and bFGF (basic fibroblast growth factor). The human neuroblastoma cell line SH-SY5Y was obtained from the German Resource Centre for Biological Material DSMZ (Braunschweig, Germany). Cells were cultivated in DMEM, supplemented with 10% FBS, 1% Penicillin-Streptomycin, 4 mM L-Glutamine. The human T cell leukemia cell line Jurkat was obtained from the German Resource Centre for Biological Material DSMZ (Braunschweig, Germany). Cells were cultivated in RPMI 1640 medium, supplemented with 10% FBS, 1% Penicillin-Streptomycin. The murine melanoma cell line B16F10 was obtained from the American Type Culture Collection (ATCC, Manassas, USA), Cells were cultivated in DMEM/GM medium supplemented with 10% FBS, 1% Penicillin-Streptomycin. […]
# as §3, §5
# [6] = system: colon carcinoma cells (SW480); test: Cell proliferation assay (CASY, current exclusion), SW480; type: cell-based; settings: 72 h
# Method: as §6, §3, §5
# [7] = system: lung carcinoma cells (A 549); test: Cell proliferation assay (CASY, current exclusion), A549; type: cell-based; settings: for proliferation relative to control: 72 h
# Method: as §1, with “The liver carcinoma cell line Hep G2 was obtained from American Type Culture Collection (ATCC, Manassas, USA) and cultivated according to standard proceedings in Eagle's Minimum Essential Medium (EMEM).” left out
# as §3, §5
# [8] = system: liver carcinoma cells (HepG2); test: Cell proliferation assay (CASY, current exclusion), HepG2; type: cell-based; settings: 72 h
# Method: as §6, §3, §5
# [9] = system: human neuroblastoma cells (SH5Y5); test: Cell proliferation assay (CASY, current exclusion), SH5Y5; type: cell-based; settings: SH5Y5, 3 μM, 72 h, FIG. 2
# Method: as §6, §3, §4
# [10] = system: apoptotic cells (AnnexinV/PI); test: AnnexinV/PI apoptosis detection (FACS); type: cell-based; settings: FIG. 3
# Method: To determine the amount of apoptotic and necrotic cells a FITC AnnexinV Apoptosis Detection Kit I was used. For FACS analysis, cells were trypsinised and centrifuged at 100×g at RT for 5 min and washed with PBS without Ca2^+ and Mg^2+. Annexin V and propidium iodide (PI) were added accordingly to the manufacture's instructions. After 15 min incubation at room temperature on a shaker in the dark, the measurement was done by using FACSCalibur (Becton Dickinson, San Jose, USA) in combination with Cell Quest Pro software.
# human immortalized cells = test: Mitotic arrest in G2/M phase of cell cycle; type: cell-based; settings: after 16 h (highest amount), control 17.4±2.3%
# Excerpt: As a measure the increase in cells with double DNA content was used, where at all points in time the amount of treated cells was higher in comparison to untreated cells.
# bovine neuronal tubulin = test: VEC-DIC microscopy of tubulin polymerization; type: biochemical; settings: tubulin 2 mg/ml, 37° C., 1 h, FIG. 5A, B
# Method: In order to evaluate interference with tubulin polymerisation bovine neuronal tubulin was used, diluted in BRB80 buffer (80 mM PIPES, pH 6.8; MgCl2 1 mM; EGTA 1 mM) at a concentration of 2 mg/ml. After addition of 0.5 mM GTP and 10% DMSO, initiating tubulin polymerisation, the solution samples were incubated at 37° C. in the presence of compound of example 6 (PDA-66). After 1 h the samples were analysed by using video enhanced contrast differential interference contrast (VEC-DIC) microscopy.
compound,measurement,setting,value
CC(=O)O[C@H]1C(=O)[C@@]2(C)[C@H]([C@H](OC(=O)c3ccccc3)[C@]3(O)C[C@H](OC(=O)[C@H](O)[C@@H](NC(=O)c4ccccc4)c4ccccc4)C(C)=C1C3(C)C)[C@]1(OC(C)=O)CO[C@@H]1C[C@@H]2O [paclitaxel],maximal OD after 60 min,[1],1.18 rel. units
same,shape of OD curve over time / effect on tubulin polymerization,[1],comparable shape but with a steeper slope
COC(=O)Nc1nc2ccc(C(=O)c3cccs3)cc2[nH]1 [nocodazole],maximal OD after 60 min,[1],1.01 rel. units
same,shape of OD curve over time / effect on tubulin polymerization,[1],nearly linear curve
"CC(=O)c1ccc(C2=C(c3c(C)[nH]c4ccccc34)C(=O)N(C)C2=O)cc1 [PDA-66, 3-(4-Acetylphenyl)-1-methyl-4-(2-methyl-1H-indol-3-yl)-1H-pyrrole-2,5-dione]",proliferation relative to control,[2]; 3 μM,3.6±1.2%
same,number of vital cells (vitality) versus control,"[2]; 3 μM, FIG. 1 right panel",significantly lower
same,proliferation of immortalized cells (cell number) versus control,"[2]; 3 μM, up to 72 h, FIG. 1 left panel",no proliferation
same,proliferation relative to control,[2]; 10 μM,0.9±0.2%
same,effect of concentration on proliferation of immortalized cells,[2]; FIG. 6,dose-dependent effect
same,IC50,"[2]; Homo sapiens, ReNcell VM",532 nM
same,proliferation relative to control,[3]; 3 μM,18.2±2.2%
same,cell numbers versus control,"[3]; 3 μM, FIG. 2",reduced or attenuated significantly
same,proliferation relative to control,[3]; 10 μM,31.9±5.9%
same,proliferation relative to control,"[4]; B16F10, 3 μM, 72 h",7.2±1.3%
same,cell numbers versus control,"[4]; B16F10, 3 μM, 72 h, FIG. 2",reduced or attenuated significantly
same,proliferation relative to control,"[4]; B16F10, at 10 (unit not given), 72 h",8.3±2.6%
same,IC50,"[4]; Mus musculus, B16-F10, B16F10 cells",1070 nM
same,proliferation relative to control,[5]; 3 μM,43.0±2.8%
same,proliferation relative to control,[5]; 10 μM,38.3±11.8%
same,proliferation relative to control,"[6]; SW480, 3 μM",61.3±0.6%
same,proliferation relative to control,"[6]; SW480, 10 μM",56.6±6.6%
same,proliferation relative to control,"[7]; A 549, 3 μM",57.1±9.2%
same,proliferation relative to control,"[7]; A 549, 10 μM",65.7±8.0%
same,IC50,"[7]; Homo sapiens, A549 cells",8980 nM
same,proliferation relative to control,"[8]; HepG2, 3 μM",74.8±6.3%
same,proliferation relative to control,"[8]; HepG2, 10 μM",47.2±3.8%
same,cell numbers versus control,[9],reduced or attenuated significantly
same,apoptotic cells (AnnexinV+/PI− and AnnexinV+/PI+),[10],increase of apoptotic cells
same,amount of cells in G2/M phase of cell cycle,human immortalized cells,68.9±10.3%
same,microtubule (MT) polymerization by VEC-DIC microscopy,bovine neuronal tubulin,hindered the MT-polymerization
same,maximal OD after 60 min,[1],1.04 rel. units
same,shape of OD curve over time / effect on tubulin polymerization,[1],destabilized tubulin in a way comparable to nocodazole
